Assay in all cases: relative viability (nuclei count vs DMSO), 5 days (fraction); higher = more cells survive
Compound in the test “Vemurafenib + Lapatinib”: CCCS(=O)(=O)Nc1ccc(F)c(C(=O)c2c[nH]c3ncc(-c4ccc(Cl)cc4)cc23)c1F [Vemurafenib] + CS(=O)(=O)CCNCc1ccc(-c2ccc3ncnc(Nc4ccc(OCc5cccc(F)c5)c(Cl)c4)c3c2)o1 [Lapatinib] (partner 2 µM)
An outline of the steps: (§1)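 Medians of duplicate plates are given as relative viability. That measure is the nuclei count in treated wells divided by the count in vehicle wells. Counts were taken on 4× images of lung cancer cell lines in 1536-well plates, 5 days after pin-tool dosing the day after seeding with one drug alone or a fixed anchor-drug dose plus five library-drug doses (not always all listed) in √10 steps.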

Compound in the test “Alpelisib + Pictilisib”: Cc1nc(NC(=O)N2CCC[C@H]2C(N)=O)sc1-c1ccnc(C(C)(C)C(F)(F)F)c1 [Alpelisib] + CS(=O)(=O)N1CCN(Cc2cc3nc(-c4cccc5[nH]ncc45)nc(N4CCOCC4)c3s2)CC1 [Pictilisib] (partner 1 µM)
In a few lines:
as §1

Compound in the test “Alpelisib + Palbociclib”: Cc1nc(NC(=O)N2CCC[C@H]2C(N)=O)sc1-c1ccnc(C(C)(C)C(F)(F)F)c1 [Alpelisib] + CC(=O)c1c(C)c2cnc(Nc3ccc(N4CCNCC4)cn3)nc2n(C2CCCC2)c1=O [Palbociclib] (partner 0.5 µM)
In a few lines: as §1

Compound in the test “OSI-027 + Phenformin”: COc1cccc2cc(-c3nc([C@H]4CC[C@H](C(=O)O)CC4)n4ncnc(N)c34)[nH]c12 [OSI-027] + N=C(N)NC(=N)NCCc1ccccc1 [Phenformin] (partner 250 µM)
In a few lines:
as §1

UMC-11: the relative viability in the test with Vemurafenib + Lapatinib (first compound 0.03162 µM) amounted to 0.698; with Vemurafenib + Lapatinib (first compound 0.1 µM), 0.956; with Vemurafenib + Lapatinib (first compound 0.3162 µM), 0.73; with Vemurafenib + Lapatinib (first compound 1 µM), 0.625; with Alpelisib + Pictilisib (first compound 0.04 µM), 0.832; with Alpelisib + Pictilisib (first compound 0.1265 µM) it was 0.883. The relative viability with Alpelisib + Pictilisib (first compound 0.4 µM) amounted to 0.877; with Alpelisib + Pictilisib (first compound 1.265 µM) it was 0.922; in the test with Alpelisib + Pictilisib (first compound 4 µM) it was 0.772; with Alpelisib + Palbociclib (first compound 0.04 µM), 0.333; in the test with Alpelisib + Palbociclib (first compound 0.1265 µM), 0.3; with Alpelisib + Palbociclib (first compound 0.4 µM), 0.357. The relative viability with Alpelisib + Palbociclib (first compound 1.265 µM) amounted to 0.307; in the test with Alpelisib + Palbociclib (first compound 4 µM), 0.328; with OSI-027 + Phenformin (first compound 0.01 µM), 0.337; with OSI-027 + Phenformin (first compound 0.03162 µM) it was 0.366; with OSI-027 + Phenformin (first compound 0.1 µM), 0.311; with OSI-027 + Phenformin (first compound 0.3162 µM), 0.311. Further, the relative viability with OSI-027 + Phenformin (first compound 1 µM) was determined as 0.274.

The values are drawn from the supplement of paper PMC10307832.
